Test [1] deals with T1, Gβ1γ2 Lys57Ala (Rattus norvegicus, UniProt P54311, K57A).
T1 construct: made in house; host or cells: Sf9 insect cells (baculovirus)
The test can be described thus: Phage ELISA, b-βγ mutant Lys57Ala. The class given is binding. The following applies: Gβ1γ2 Lys57Ala; phage displaying SIGK peptide. The source says: (§1) Wild-type Gβ1 and Gβ1 mutants were made in the baculovirus vector PDW464 which encodes a biotinylation site at a lysine upstream of the amino terminus of Gβ1 (Goubaeva, et al. (2003) supra). Mutants were generated by overlap extension PCR using standard protocols. The wild-type and mutant Gβ1 constructs consisted of a 20 amino acid biotin acceptor peptide (BAP) sequence fused in-frame with the amino-terminus of rat Gβ1 subunit. When coexpressed with biotin holoenzyme synthetase (BirA) in Sf9 cells, the Gβ1 subunit becomes covalently biotinylated in vivo at the Specific lysine acceptor residue in the BAP. Using this approach, 1-2 mg protein of purified protein can be obtained per liter of Sf9 insect cells. As 45 ng of protein is used in the phage ELISA assay, a single purification is sufficient for 10,000 to 30,000 binding assays.
(§2) Phage ELISA assays used to assess peptide binding to wild-type and mutant b-βγ were performed according to standard methods (Smrcka and Scott (2002) Methods Enzymol. 344:557-76). Briefly, 1 μg streptavidin was immobilized in the well of a […] overnight at 4° C. The wells were blocked with 100 μL of 2% bovine serum albumin (BSA) in Tris-buffered saline (TBS) for 1 hour at 4° C. followed by three washes of 1×TBS/0.5% TWEEN®. Forty μL of 25 nM bGβ1γ2 in TBS/0.5% TWEEN® was added to each well and incubated at 4° C. for 1.5 hour. The wells were washed, followed by the addition of 1×10^6 to 1×10^10 phage particles and incubated at 4° C. for 3 hours. The wells were then washed six times with TBS/0.5% TWEEN® followed by addition of 40 μL of 1:5000 dilution of anti-M13 antibody (Pharmacia, Uppsala, Sweden) and incubated at room temperature for 1 hour. The wells were washed, followed by the addition of 40 μL of (2,2′-Azino-bis(3-ethylbenzthiazoline)-6-sulfonic acid (ABTS) and the colorimetric reaction was monitored at 405 nm. Non-specific binding was subtracted for each reading.
(§3) Both assays were then carried out with Gβ1γ2 heterodimers containing mutations in the Gβ1 subunit.
(§4) The nine peptides were selected to represent the different consensus groups of peptides previously identified (See Scott et al. (2001) supra; Table 9) and to compare binding characteristics within and between consensus groups. […] As disclosed herein, the binding signal obtained in the ELISA assay was correlated to a loss in affinity by comparing the results to behavior of the peptide in a solution based assay. […] For the purposes of present disclosure, any substitution that decreased the binding to less than 20% of the wild-type binding was considered to be a critical binding contact for that peptide.
A general note: ELISA stands for enzyme-linked immunosorbent assay.

Test [2] has as its target T2, Gβ1γ2 His62Ala (Rattus norvegicus, UniProt P54311, H62A).
T2 construct: made in house; host or cells: Sf9 insect cells (baculovirus)
Briefly: Phage ELISA, b-βγ mutant His62Ala. The class given is binding. The following applies: phage displaying SIGK peptide.
Text: as §1
(§5) Phage ELISA assays used to assess peptide binding to wild-type and mutant b-βγ were performed according to standard methods (Smrcka and Scott (2002) Methods Enzymol. 344:557-76). Briefly, 1 μg streptavidin was immobilized in the well of a 96-six well plate overnight at 4° C. […] The wells were washed, followed by the addition of 40 μL of (2,2′-Azino-bis(3-ethylbenzthiazoline)-6-sulfonic acid (ABTS) and the colorimetric reaction was monitored at 405 nm. Non-specific binding was subtracted for each reading. […]

In test [3] the target is T3, Gβ1γ2 Trp99Ala (Rattus norvegicus, UniProt P54311, W99A).
T3 construct: made in house; host or cells: Sf9 insect cells (baculovirus)
Briefly: Phage ELISA, b-βγ mutant Trp99Ala. The class given is binding.
Text: as §1, §2, §3, §4

Test [4] addresses T4, Gβ1γ2 Met101Ala (Rattus norvegicus, UniProt P54311, M101A).
T4 construct: made in house; host or cells: Sf9 insect cells (baculovirus)
Briefly: Phage ELISA, b-βγ mutant Met101Ala. The class given is binding. The following applies: Gβ1γ2 Met101Ala; phage displaying SIGK peptide.
Text: as §1, §2, §3, §4

Test [5] deals with T5, Gβ1γ2 Leu117Ala (Rattus norvegicus, UniProt P54311, L117A).
T5 construct: made in house; host or cells: Sf9 insect cells (baculovirus)
The test can be described thus: Phage ELISA, b-βγ mutant Leu117Ala. The class given is binding. The following applies: Gβ1γ2 Leu117Ala; phage displaying SIGK peptide.
Text: as §1, §2, §3, §4

Test [6] deals with T6, Gβ1γ2 Tyr145Ala (Rattus norvegicus, UniProt P54311, Y145A).
T6 construct: made in house; host or cells: Sf9 insect cells (baculovirus)
Briefly: Phage ELISA, b-βγ mutant Tyr145Ala. The following applies: Gβ1γ2 Tyr145Ala; phage displaying SIGK peptide. Type of test: binding.
Text: as §1, §2, §3, §4

Test [7] concerns the target T7, Gβ1γ2 Met188Ala (Rattus norvegicus, UniProt P54311, M188A).
T7 construct: made in house; host or cells: Sf9 insect cells (baculovirus)
The test can be described thus: Phage ELISA, b-βγ mutant Met188Ala. Type of test: binding. The following applies: Gβ1γ2 Met188Ala; phage displaying SIGK peptide.
Text: as §1, §2, §3, §4

Test [8] addresses T8, Gβ1γ2 Asp246Ser (Rattus norvegicus, UniProt P54311, D246S).
T8 construct: made in house; host or cells: Sf9 insect cells (baculovirus)
The test can be described thus: Phage ELISA, b-βγ mutant Asp246Ser. The class given is binding. The following applies: Gβ1γ2 Asp246Ser; phage displaying SIGK peptide.
Text: as §1, §2, §3, §4

Test [9] addresses T9, Gβ1γ2 Phe292Ala (Rattus norvegicus, UniProt P54311, F292A).
T9 construct: made in house; host or cells: Sf9 insect cells (baculovirus)
Briefly: Phage ELISA, b-βγ mutant Phe292Ala. The following applies: phage displaying SIGK peptide. The class given is binding.
Text: as §1, §5

Test [10] has as its target T10, Gβ1γ2 His311Ala (Rattus norvegicus, UniProt P54311, H311A).
T10 construct: made in house; host or cells: Sf9 insect cells (baculovirus)
The test can be described thus: Phage ELISA, b-βγ mutant His311Ala. Type of test: binding. The following applies: Gβ1γ2 His311Ala; phage displaying SIGK peptide.
Text: as §1, §2, §3, §4

For test [11], the target named is T11, Gβ1γ2 Arg314Ala (Rattus norvegicus, UniProt P54311, R314A).
T11 construct: made in house; host or cells: Sf9 insect cells (baculovirus)
Briefly: Phage ELISA, b-βγ mutant Arg314Ala. The class given is binding. The following applies: Gβ1γ2 Arg314Ala; phage displaying SIGK peptide.
Text: as §1, §2, §3, §4

The target in test [12] is T12, Gβ1γ2 Trp332Ala (Rattus norvegicus, UniProt P54311, W332A).
T12 construct: made in house; host or cells: Sf9 insect cells (baculovirus)
The test can be described thus: Phage ELISA, b-βγ mutant Trp332Ala. Type of test: binding. The following applies: Gβ1γ2 Trp332Ala; phage displaying SIGK peptide.
Text: as §1, §2, §3, §4

Test [13] has as its target T13, wild-type b-Gβ1γ2 (Fαi1 binding) (Rattus norvegicus, UniProt P54311).
T13 construct: made in house; host or cells: Sf9 insect cells (baculovirus) for b-βγ
Briefly: Flow cytometry competition for FITC-Gαi1 binding to immobilized wild-type b-βγ. The following applies: Log [SIGK] M −7.
Text: as §1, with “BAP.” for “BAP. Using this approach, 1-2 mg protein of purified protein can be obtained per liter of Sf9 insect cells. As 45 ng of protein is used in the phage ELISA assay, a single purification is sufficient for 10,000 to 30,000 binding assays.”
(§6) Blocking of Gαi•Gβ1γ2 binding was assessed by simultaneously adding 200 pM FITC-Gαi with or without SICK to 50 pM immobilized b-βγ and measuring the amount of FITC-Gαi bound to the beads by flow cytometry according to standard methods (Ghosh, et al. (2003) supra; Sarvazyan, et al. (1998) J. Biol. Chem. 273:7934-40).
(§7) Fluorescein-labeled Gαi1 (Fαi1) was prepared in accordance with standard methods (Sarvazyan, et al. (1998) supra). Assays were used to determine peptide effects on Gα-Gβγ interactions included competition and dissociation assays (Ghosh, et al. (2003) supra). […] The bead-associated fluorescence was then recorded in a BD Biosciences FACSCALIBUR™ flow cytometer. Data was corrected for background fluorescence and fit with a sigmoid dose response curve using Graph Pad Prism 4. […]
On the technique in general: Flow cytometry measures light scatter and fluorescence of single cells or particles in a stream.

Test [14] deals with T14, b-βγ Trp332Ala (Fαi1 binding) (Rattus norvegicus, UniProt P54311, W332A).
T14 construct: made in house; host or cells: Sf9 insect cells (baculovirus)
Briefly: Flow cytometry competition for FITC-Gαi1 binding, b-βγ Trp332Ala. The following applies: Log [SIGK] M −7.
Text: as §1, with “BAP.” for “BAP. Using this approach, 1-2 mg protein of purified protein can be obtained per liter of Sf9 insect cells. As 45 ng of protein is used in the phage ELISA assay, a single purification is sufficient for 10,000 to 30,000 binding assays.”
as §6, §7

Test [15] deals with T15, b-βγ Arg314Ala (Fαi1 binding) (Rattus norvegicus, UniProt P54311, R314A).
T15 construct: made in house; host or cells: Sf9 insect cells (baculovirus)
Briefly: Flow cytometry competition for FITC-Gαi1 binding, b-βγ Arg314Ala. The following applies: Log [SIGK] M −7.
Text: as §1, with “BAP.” for “BAP. Using this approach, 1-2 mg protein of purified protein can be obtained per liter of Sf9 insect cells. As 45 ng of protein is used in the phage ELISA assay, a single purification is sufficient for 10,000 to 30,000 binding assays.”
as §6, §7

The values below come from US8748480B2, “Methods for treating opioid tolerance” (priority 2005, dated 2014).

Consider `CC[C@H](C)[C@H](NC(=O)[C@H](CCCCN)NC(=O)[C@H](Cc1ccccc1)NC(=O)[C@H](C)NC(=O)[C@H](CCCCN)NC(=O)CNC(=O)[C@@H](NC(=O)[C@@H](N)CO)[C@@H](C)CC)C(=O)N[C@@H](CC(C)C)C(=O)NCC(=O)N[C@@H](Cc1ccc(O)cc1)C(=O)N1CCC[C@H]1C(=O)N[C@@H](CC(=O)O)C(=O)N[C@@H](Cc1ccc(O)cc1)C(=O)N[C@@H](CC(=O)O)C(=O)O` [SIGK], for which the “% of Wild-Type Signal (mean ± SD)” value in test [1] was determined as 18.6 ± 4.6%; in test [2], 111.2 ± 11.3%; in test [3] (Gβ1γ2 Trp99Ala, phage displaying SIGK peptide) it was 66.0 ± 7.7%; in test [4], 32.2 ± 15.5%; in [5] it was 2.1 ± 2.4%; in test [6], 0.8 ± 0.9%. Further, the “% of Wild-Type Signal (mean ± SD)” value in test [7] is 2.5 ± 3.7%; in [8], 66.5 ± 7.5%; in [9], 109.1 ± 21.4%; in test [10], 94.3 ± 18.9%; in [11], 50.2 ± 5.0%; in [12] it was 7.1 ± 3.7%. In addition, the decrease in affinity in [3] (Trp99 mutation of Gβ1) was 4 fold. Moreover, the “% Maximal Fα Binding (± SD)” value in [13], in test [14] and in test [15] was 100.0 ± 0.0% each time.
